We go through 89 compounds from ChEMBL document CHEMBL1157539, “Thousands of chemical starting points for antimalarial lead identification” (Nature, 2010).

This assay concerns Plasmodium falciparum. Put plainly: GSK_TCMDC: Inhibition of Plasmodium falciparum 3D7 in whole erythrocytes, using parasite LDH activity as an index of growth. Format: functional, organism-based. The conditions noted are these: Plasmodium falciparum, 3D7.
`Cc1ccc2c(N/N=C/c3ccccc3[N+](=O)[O-])cc(C)nc2c1`: the XC50 stood at 416 nM. As for `CCN(CC)CCN(Cc1ccc(-c2ccc(C(F)(F)F)cc2)cc1)C(=O)Cn1c(CCc2cccc(F)c2F)c(C)c(=O)c2ccccc21`, the figure is 942 nM. Take `CC(C)C[C@@H]1C(=O)N[C@H](C2Cc3ccccc3C2)C(=O)N1[C@@H](C(=O)O)c1ccc(F)cc1F`: the XC50 stood at 836 nM.

In the case of `O=C(/C=C/c1ccc(Cl)c(Cl)c1)NCCCCCN1CCC(c2c[nH]c3ccccc23)CC1`, the XC50 was 781 nM.

In turn, `C#CCN(Cc1ccc2[nH]c(N)nc(=O)c2c1)c1ccc(C(=O)N[C@@H](CCC(=O)O)C(=O)O)cc1` had an XC50 of 217 nM. For the compound `Cc1ccc(C2=NNC3(S2)C(=O)Nc2ccc(C)cc23)cc1` (centres undefined), the XC50 came out at 1020 nM. The compound `CN(C)CCNC(=O)c1csc(Nc2ccc(Cl)c(Cl)c2)n1` gave an XC50 of 225 nM.

As to `Cc1ncc([N+](=O)[O-])n1CCOC(=O)NC(NCC1COc2ccccc2O1)C(Cl)(Cl)Cl` (centres undefined), the XC50 amounted to 223 nM.

Regarding `O=C(Nc1ccc(C(F)(F)F)cc1)c1ccc(NCCCN2CCCCCC2)c([N+](=O)[O-])c1`, the XC50 came out at 315 nM. Under `CC(=O)c1c[nH]c(C(=O)Nc2ccc(-c3cn4ccccc4n3)cc2)c1` stands 890 nM. Regarding `O=C(NCc1cccc2ccccc12)c1ccc(CNC2CCN(Cc3ccccc3)CC2)cc1`, the XC50 is 838 nM.

For the compound `CCn1cc(CN2CCCC(C(=O)Nc3ccc(-c4nc5ccccc5[nH]4)cc3)C2)cn1` (centres undefined), the XC50 was found to be 927 nM.

In turn, `CCOc1cc(N)c2nc3ccc([N+](=O)[O-])cc3cc2c1` came in with an XC50 of 145 nM. `COc1ccc(CCN(C)CCOc2ccc(NC(=O)COc3ccc4sc5ccccc5c(=O)c4c3)cc2)cc1OC` returned an XC50 of 1100 nM. With `Cc1cccc(CNc2nc(C)cc(N[C@@H](Cc3ccccc3)C(=O)NC3CCCC3)n2)c1`, the XC50 turned out to be 653 nM. With `CSc1ccc2ccccc2c1CCNCCCCNCCc1c(SC)ccc2ccccc12`, the XC50 is 408 nM. Under `CCOC(=O)c1ccc(COc2ccc(C)nc2)cc1` stands 542 nM; under `CCCCCCCN1CC[C@@H](CCCc2ccnc3ccc(OCCCCN/C(N)=N/O)cc23)[C@@H](CC)C1`, 952 nM; under `CC[C@H]1CN(Cc2cccc(O)c2)CC[C@H]1CCCc1ccnc2ccc(O)cc12`, 534 nM.

Turning to `O=C1Nc2ccccc2/C1=N/NC(=S)N1CCOCC1`, the XC50 stood at 910 nM. For `COc1ccccc1CNc1ccnc(NCCc2cccc(C(F)(F)F)c2)n1`, the XC50 was 925 nM. Under `COc1ccc(NC(=O)NC2CCN(c3ccnc4ccccc34)C2)cc1` (centres undefined) stands 875 nM; under `COc1ccc(CNc2cc(C)nc3sc4c(c23)CCC2(C4)OCCO2)cc1`, 953 nM; under `CCCC(C)Nc1nc(C)cc(N[C@@H](Cc2ccccc2)C(=O)Nc2ccccc2)n1` (some centres undefined), 863 nM. In the case of `O=c1cc(NCCCNCc2cccc(I)c2)[nH]c2ccccc12`, the XC50 worked out at 1020 nM. Consider `Nc1nc(N)c2c(ccc3nn(Cc4ccccc4)cc32)n1`, for which the XC50 was determined as 215 nM. As for `CN(C)c1ccc(CN2CCC(NC(=O)c3ccc(-c4cccc(Cl)c4)s3)CC2)cc1`, the XC50 turned out to be 924 nM.

`CCCCNc1cc(C)nc(NCc2ccccc2)n1`: the XC50 came out at 975 nM.

`FC(F)(F)c1ccc(CNCC2CCN(Cc3ccc4c(c3)OCO4)CC2)cc1` returned an XC50 of 1360 nM. Under `N#Cc1cccc(C(O)C2CN(CCC3CCCCC3)CCC2(O)c2ccccc2)c1` (centres undefined) stands 129 nM; under `CC(=O)c1ccc(-c2ccc(C(=O)NCCCCN3CCC(c4ccc5c(c4O)CCCC5)CC3)cc2)cc1`, 762 nM. Compound `CC(Cc1ccc(SCCSc2ccccc2)cc1)NCC(O)c1cccc(Cl)c1` (centres undefined) returned an XC50 of 367 nM.

In the case of `CCOc1ccc2c(c1)N(C(=O)C=Cc1ccccc1)C(C)(C)c1ssc(=S)c1-2`, the XC50 came to 1150 nM. `OCCc1ccc(Nc2nccc(-c3nnc4ccccn34)n2)cc1` showed an XC50 of 901 nM. Under `O=C(/C=C/c1ccc(Cl)c(Cl)c1)NCCCCN1CCCN(C(=O)Nc2ccc(C(F)(F)F)cc2)CC1` stands 847 nM; under `CC(Cl)=CCc1c(C)nc2c(ccc3ccccc32)c1O`, 198 nM; under `CSc1cccc(Nc2nc3ccc(S(=O)(=O)NC(C)C(C)C)cc3n2[C@H](C)C(C)(C)C)c1` (some centres undefined), 446 nM.

Compound `NC1=NC2(CCCCC2)N(OCCCCCCC2CCCCC2)C(N)=N1` displayed an XC50 of 356 nM. As for `COc1ccc(-c2cnc3ccc(NC4CCC(O)CC4)nn23)cn1` (centres undefined), the figure is 715 nM.

As to `CC(C)(CNCc1cccc(Oc2ccccc2)c1)c1nc(-c2ccnc(N)n2)c(-c2ccc(Cl)c(O)c2)[nH]1`, the XC50 is 760 nM.

`COc1c(C2CCN(CCCCNC(=O)c3ccc(-c4ccc(C(=O)C(F)(F)F)cc4)cc3)CC2)ccc2c1CCCC2`: the XC50 stood at 1100 nM. Take `CC(C)(C)c1ccc(CN2CCC(NC(=O)c3ccc(-c4ccccc4F)s3)CC2)cc1`: the XC50 is 1200 nM. Compound `COc1cc(C(=O)NC2CCC(CN3CCC(c4c[nH]c5ccccc45)CC3)CC2)cc(Cl)n1` (centres undefined) showed an XC50 of 688 nM. Turning to `N#Cc1cccc(/C=C/C(=O)NC2CCC(CCN3CCc4ccc(-c5cnccn5)cc4CC3)CC2)c1` (centres undefined), the XC50 stood at 773 nM. Regarding `OC1CCC(Nc2ccc3ncc(-c4ccc5ccccc5c4)n3n2)CC1` (centres undefined), the XC50 was 978 nM. In turn, `CCCCN(CCCC)Cc1cc(N(C)c2ccc([N+](=O)[O-])cn2)ccc1O` had an XC50 of 544 nM. As for `Cc1ccccc1C1CCN(C2CCC(NC(=O)/C=C/c3cc(F)ccc3F)CC2)CC1` (centres undefined), the figure is 1040 nM; as for `Cc1ccc(-c2cccc3c(NC(=O)Nc4ccc5nccc(N6CCN(C)CC6)c5c4)cccc23)cn1`, 352 nM.

`COc1cccc(CNC(=O)NC2CCN(c3ccnc(Nc4cc(OC)c(OC)c(OC)c4)n3)C2)c1` (centres undefined) showed an XC50 of 713 nM.

With `O=C(NC1CCN(CC2(c3ccccc3)CCCC2)CC1)c1n[nH]cc1Cl`, the XC50 was 1040 nM. Regarding `Cc1ccccc1C1CCN(C2CCC(NC(=O)/C=C/c3ccc(C(F)(F)F)cc3F)CC2)CC1` (centres undefined), the XC50 was 902 nM. Under `COc1cc(C)nc2ccc(NC(=O)COCC(=O)Nc3ccc4nc(C)cc(OC)c4c3)cc12` stands 917 nM; under `COc1ccc(Cn2c(Nc3cccc(C(F)(F)F)c3)nc3cc(C(=O)NC(C)C)cnc32)cc1Cl`, 973 nM.

In turn, `O=C(Nc1ccc(Cl)cn1)c1sc2ccccc2c1O` had an XC50 of 1040 nM. As for `CC(Cc1ccc(CN2CCN(Cc3ccccc3)CC2)cc1)NCC(O)c1cccc(C(F)(F)F)c1` (centres undefined), the XC50 turned out to be 893 nM.

For `Cc1cc(N(C)C)nc(Nc2ccc(NC(=O)c3ccccc3C)cc2)n1`, the XC50 was determined as 1130 nM. As for `CCCN(Cc1nnc(-c2ccco2)o1)C(=O)C1CCN(c2ncc(C(F)(F)F)cc2Cl)CC1`, the figure is 691 nM; as for `CC(C)CCN1CCC(Oc2ccc(NC(=O)c3ccsc3)cc2Cl)CC1`, 1040 nM. As for `Cc1ccc(O)c(CN2CCCC(COC(c3ccc(F)cc3)c3ccc(F)cc3)C2)c1` (centres undefined), the figure is 715 nM; as for `CCOc1ccc(-c2nc(NC(=O)CS(=O)(=O)c3ccccc3)sc2C)cc1`, 510 nM.

In turn, `Cc1nc2nc(N)nc(N)c2c(C)c1Cc1cccc(C#N)c1` showed an XC50 of 924 nM. Under `COc1ccc2nccc([C@@H](O)CN3CCC(NCc4ccc5c(c4)sc(=O)n5C)CC3)c2c1` stands 258 nM; under `O=[N+]([O-])c1cccc(C=NNc2nc(=Nc3ccccc3)[nH]c(=Nc3ccccc3)[nH]2)c1`, 968 nM; under `Oc1ccc(Nc2nc(N3CCCC3)c3ccccc3n2)cc1`, 270 nM. As for `CCc1c(C(=O)NC2CCC(N3CCC(c4ccccc4OC)CC3)CC2)[nH]c2ccc(OC)cc12` (centres undefined), the figure is 1110 nM; as for `CC(C)(CNCc1ccc(Cl)c(Cl)c1)c1nc(-c2ccc(Cl)c(O)c2)c(-c2ccncc2)[nH]1`, 757 nM.

`Cc1nc(-c2cccc(Nc3nccc(NCC(O)c4ccccc4C)n3)c2)cs1` (centres undefined): the XC50 amounted to 890 nM.

Compound `CCCN(CCC)S(=O)(=O)c1ccc(C(=O)Nc2nc3ccc(-c4cc(=O)[nH]c(Nc5ccccc5Cl)n4)cc3[nH]2)cc1` registered an XC50 of 594 nM. As for `Cc1cc(NCCc2ccccc2)nc(NC(=N)Nc2cccc(Cl)c2)n1`, the figure is 181 nM; as for `COc1ccc(OCCON)cc1`, 201 nM. `Oc1ccccc1CCNC1CCc2ccccc2C1` (centres undefined): the XC50 worked out at 928 nM. Under `CCOC(=O)C1CCN(CCCNC(=O)/C(=C/C=C/c2cc3cc(Cl)c(Cl)cc3[nH]2)OC)CC1` stands 1040 nM; under `O=c1ccc(CNc2nc(NCCc3ccccc3)nc3cc(Cl)ccc23)c[nH]1`, 298 nM; under `CCCS(=O)(=O)c1nc(S(=O)(=O)c2ccc(Cl)cc2)c(N2CCCCC2)s1`, 1290 nM. As for `COCCOCCOCCn1ccc2c3c(N)nc(N)nc3ccc21`, the figure is 263 nM; as for `CC(C)(C)c1ccc(CNCCOc2ccc(Nc3nnc(-c4ccc(-c5ncc[nH]5)cc4)o3)c3ccccc23)cc1`, 135 nM; as for `O=C(Nc1ccccc1O)C1CCN(c2ncnc3cc(-c4ccc(F)cc4)sc23)CC1`, 874 nM. As for `Cc1noc(C)c1-c1ccc2c(Nc3ccc(C#N)cc3)c(C(N)=O)cnc2c1`, the figure is 755 nM. Compound `O=C(Nc1ccc([N+](=O)[O-])cc1Br)c1cc2ccccc2nc1Cl` returned an XC50 of 185 nM. Under `CO/C(=C\C=C\c1cc2cc(Cl)c(Cl)cc2[nH]1)C(=O)NCCCN1CCN(c2cccc(OCC(=O)Nc3ccccc3)c2)CC1` stands 504 nM.

The compound `O=[N+]([O-])c1cccc(CNC2CCN(Cc3ccc(C(F)(F)F)cc3)CC2)c1` had an XC50 of 736 nM.

`N=c1[nH]c2cccc3ccc4cccc1c4c32` showed an XC50 of 918 nM.

`CC(=O)Nc1ccc(C(=O)Nc2cccc(-c3ccc(-c4nc5cc(F)ccc5[nH]4)s3)c2)cn1` came in with an XC50 of 233 nM.

`Cc1nc2c(=O)sc3ccccc3c2n1Cc1ccccc1` displayed an XC50 of 881 nM. As for `COCCNCc1cccc(-c2ccc(CN(C(=O)Nc3ccccc3)C3CCN(Cc4ccccc4)CC3)cc2)c1`, the figure is 773 nM; as for `CCN(CC)CCn1c(=N)n(CC(=O)c2ccc(-c3ccccc3)cc2)c2ccccc21`, 1140 nM; as for `CCCCCCCNc1cc(C)nc2ccc(OC)cc12`, 671 nM. In turn, `COc1cc(C(=O)N2CCN(C(C)C)CC2)ccc1CN(C)CCCCN1CCN(c2cccc(Cl)c2Cl)CC1` had an XC50 of 704 nM. With `Cc1cc(C(=O)CN2C(=O)NC3(CCCc4ccccc43)C2=O)c(C)n1Cc1ccco1` (centres undefined), the XC50 was found to be 1100 nM.
